Data on 15 compounds can be found in publication PMC9773353 (ACS Omega, 2022).

Series [1] concerns BHK-21 normal cells. In words: MTT cell viability assay, BHK-21 normal cells. The conditions noted are these: 100 μM, 24–48 h incubation; for % cell viability ± SD (BHK-21 cells): vs untreated control. It is filed as cell-based. (In general: Tetrazolium dyes change colour on reduction, which living cells bring about.)
In series [2] the test system is HEK-293 T normal cells. In words: MTT cell viability assay, HEK-293 T normal cells. The conditions noted are these: 100 μM, 24–48 h incubation, MTT; for % cell viability ± SD (HEK-293 T cells): vs untreated control. It is filed as cell-based.
Series [3] deals with hCA II (Homo sapiens, UniProt P00918). In words: Carbonic anhydrase inhibition assay. It is filed as biochemical. The conditions noted are these: for IC50: IC50 ± SEM hCA II, mean of three independent experiments; for inhibition of hCA-II in words: text grading of Table 4 results.
The target in series [4] is hCA IX (Homo sapiens, UniProt Q16790). Put plainly: biochemical.
For series [5], the target named is hCA XII (Homo sapiens, UniProt O43570). Put plainly: Carbonic anhydrase inhibition assay. The series is classed as biochemical.
Chain of hCA XII (O43570 25-354): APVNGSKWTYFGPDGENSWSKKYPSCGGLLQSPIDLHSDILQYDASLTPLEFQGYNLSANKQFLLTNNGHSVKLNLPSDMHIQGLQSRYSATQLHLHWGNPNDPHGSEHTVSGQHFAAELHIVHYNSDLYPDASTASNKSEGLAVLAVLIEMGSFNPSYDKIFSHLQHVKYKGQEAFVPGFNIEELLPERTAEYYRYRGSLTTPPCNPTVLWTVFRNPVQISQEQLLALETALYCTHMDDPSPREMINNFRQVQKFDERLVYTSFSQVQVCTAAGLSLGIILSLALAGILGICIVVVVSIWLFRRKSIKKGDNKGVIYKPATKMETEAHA
The nature of series [6]: MTT cell viability assay, HEK-293 T normal cells. The series is classed as cell-based. The following applies: human, HEK-293 T normal cells; for viability at 100 µM: % cell viability ± SD (HEK-293 T cells), 24–48 h incubation, MTT, vs untreated control.

Several values for one entry are separate records, joined by “and”; a condition that tells them apart may be missing. Equal entries are not always repeated.

As to “3-(3-(3,4-Dimethoxybenzoyl) thioureido) Benzoic Acid [Compound 21]”, in series [1], the “% cytotoxicity ± SD (BHK-21 cells)” value is listed as 51.5 ± 0.06% and the “% cell viability ± SD (BHK-21 cells)” value is given as 48 ± 0.1%. Further, in series [2], the “% cytotoxicity ± SD (HEK-293 T cells)” value worked out at 13 ± 0.05% and the “% cell viability ± SD (HEK-293 T cells)” value was 86 ± 0.6%.
The IC50 is the point on the concentration scale where inhibition reaches its midpoint. High values mean weaker potency in that assay, low ones greater potency in that assay. The viability is a per cent measure of how many cells are alive, often set against a control. Read a low viability as more harm to the cells. As for `Cc1cc(C)cc(C(=O)Nc2cc(Cl)c(S(N)(=O)=O)cc2S(N)(=O)=O)c1` [Compound 11, N-(5-Chloro-2,4-disulfamoylphenyl)-3,5-dimethylbenzamide], the IC50 in series [3] was 1190 nM and 1180 nM; in series [4] it was 170 ± 50 nM; in series [5], 2990 ± 320 nM. The cytotoxicity at 100 µM in series [6] is 27 ± 0.06%. Besides, in series [6], the viability at 100 µM came out at 72 ± 0.6%.
Regarding `COc1ccc(C(=O)Nc2cc(Cl)c(O)c(Cl)c2)cc1OC` [Compound 12, N-(3,5-Dichloro-4-hydroxyphenyl)-3,4-dimethoxybenzamide], the “inhibition of hCA-II in words” value in series [3] is reported as “did not show any inhibition”. Further, the IC50 in series [5] is 580 ± 60 nM. In addition, in series [6], the cytotoxicity at 100 µM is 26.6 ± 0.06% and the viability at 100 µM was found to be 73 ± 0.1%.
For `Cc1ccc(C(=O)Nc2cccc(C(=O)O)c2)c(C)c1` [Compound 13, 3-(2,4-Dimethylbenzamido) Benzoic Acid], in series [4], the IC50 amounted to 10400 ± 1450 nM. In series [6], the cytotoxicity at 100 µM amounted to 14 ± 0.09% and the viability at 100 µM was found to be 86 ± 0.6%.
In the case of `Cc1cc(C)cc(C(=O)Nc2cc([N+](=O)[O-])ccc2Cl)c1` [Compound 14, N-(2-Chloro-5-nitrophenyl)-3,5-dimethylbenzamide], in series [3], half-maximal inhibition (IC50) required 6490 ± 630 nM and the “inhibition of hCA-II in words” value is given as “moderate inhibition”. It took 950 ± 80 nM to reach half-maximal inhibition in series [5] (IC50). In series [6], this compound showed a cytotoxicity at 100 µM of 15 ± 0.4% and a viability at 100 µM of 85 ± 0.1%.
The compound `Cc1cc(C)cc(C(=O)Nc2cc(Br)cc(C(F)(F)F)c2)c1` [Compound 15, N-(3-Bromo-5-(trifluoromethyl)phenyl)-3,5-dimethylbenzamide] displayed an IC50 in series [3] of 1930 ± 150 nM. In series [5], half-maximal inhibition (IC50) was put at 1050 ± 110 nM. In series [6], this compound came in with a cytotoxicity at 100 µM of 18 ± 0.6% and a viability at 100 µM of 82 ± 0.6%.
On to `COc1ccc(C(=O)NC(=S)Nc2cc(Cl)c(S(N)(=O)=O)cc2S(N)(=O)=O)cc1OC` [Compound 17, N-((5-Chloro-2,4-disulfamoylphenyl)carbamothioyl)-3,4-dimethoxybenzamide], for which, in series [3], the IC50 was found to be 11500 ± 160 nM and the “inhibition of hCA-II in words” value is listed as “moderate inhibition”. Also, the midpoint of inhibition in series [4], the IC50, lay at 1710 ± 650 nM. In series [6], this compound gave a cytotoxicity at 100 µM of 3 ± 0.04% and a viability at 100 µM of 97 ± 0.3%.
With `COc1ccc(C(=O)NC(=S)Nc2ccc(C(=O)O)cc2)cc1OC` [Compound 18, 4-(3-(3,4-Dimethoxybenzoyl)thioureido) Benzoic Acid], in series [3], the IC50 worked out at 4170 ± 290 nM and the “inhibition of hCA-II in words” value is given as “moderate inhibition”. In series [4], the IC50 was 210 ± 90 nM. Also, in series [5], it took 1680 ± 150 nM to reach half-maximal inhibition (IC50). In series [6], this compound registered a cytotoxicity at 100 µM of 24 ± 0.07% and a viability at 100 µM of 75%.
For the compound `COc1ccc(C(=O)NC(=S)Nc2c(Cl)cc([N+](=O)[O-])cc2Br)cc1OC` [Compound 19, N-((2-Bromo-6-chloro-4-nitrophenyl)carbamothioyl)-3,4-dimethoxybenzamide], the IC50 in series [3] was 725 nM and 720 nM; in series [4], 1010 ± 50 nM. The cytotoxicity at 100 µM in series [6] came out at 50 ± 0.08%. The compound also came in with a viability at 100 µM in series [6] of 49 ± 0.6%.
For `COc1ccc(C(=O)NC(=S)Nc2cc([N+](=O)[O-])ccc2Cl)cc1OC` [Compound 22, N-((2-Chloro-5-nitrophenyl)carbamothioyl)-3,4-dimethoxybenzamide], the IC50 in series [3] came out at 260 ± 30 nM; in series [4] it was 4930 ± 1830 nM; in series [5], 4290 ± 240 nM. In series [6], this compound registered a cytotoxicity at 100 µM of 9 ± 0.05%. The viability at 100 µM in series [6] was more than 90%.
The like results for `Cc1cc(C)cc(C(=O)NC(=S)Nc2ccccc2O)c1` [Compound 24, N-((2-Hydroxyphenyl)carbamothioyl)-3,5-dimethylbenzamide] were, in that order, 1240 ± 960 nM, 1250 ± 20 nM, 9900 ± 660 nM, 18 ± 0.03% and 81 ± 0.1%.
Compound `Cc1ccc(C(=O)NC(=S)Nc2ccc(C(=O)O)cc2)c(C)c1` [Compound 25, 4-(3-(2,4-Dimethylbenzoyl)thioureido) Benzoic Acid] had an IC50 in series [3] of 380 ± 10 nM. In series [4], this compound displayed an IC50 of 9760 ± 1030 nM. Moreover, in series [6], the cytotoxicity at 100 µM turned out to be 2 ± 0.02% and the viability at 100 µM is more than 90%.
As for `Cc1cc(C)cc(C(=O)NC(=S)Nc2cc(Cl)c(O)c(Cl)c2)c1` [Compound 26, N-((3,5-Dichloro-4-hydroxyphenyl)carbamothioyl)-3,5-dimethylbenzamide], in series [3], the IC50 stood at 4450 ± 110 nM and the “inhibition of hCA-II in words” value is “moderate inhibition”. Also, in series [4], the IC50 is 1280 ± 90 nM. The IC50 in series [5] was determined as 2020 ± 280 nM. In series [6], this compound gave a cytotoxicity at 100 µM of 2 ± 0.06% and a viability at 100 µM of more than 90%.
For the compound “N-((2-Hydroxyphenyl) carbamothioyl)-3,4-dimethoxybenzamide [Compound 20]”, the “inhibition of hCA-II in words” value in series [3] is reported as “did not show any inhibition”. Further, in series [1], the “% cytotoxicity ± SD (BHK-21 cells)” value was determined as 54.6 ± 0.02% and the “% cell viability ± SD (BHK-21 cells)” value was determined as 45 ± 0.09%. For the same compound, in series [2], the “% cytotoxicity ± SD (HEK-293 T cells)” value is listed as 13 ± 0.03% and the “% cell viability ± SD (HEK-293 T cells)” value is 86 ± 0.07%.
Take “N-((3-Bromo-5-(trifluoromethyl) phenyl) carbamothioyl)-3,4-dimethoxybenzamide [Compound 23]”: the “inhibition of hCA-II in words” value in series [3] is on record as “did not show any inhibition”. Besides, in series [1], the “% cytotoxicity ± SD (BHK-21 cells)” value is 65.0 ± 0.06%. Besides, in series [2], the “% cytotoxicity ± SD (HEK-293 T cells)” value worked out at 26 ± 0.06%.
